Results from patent publication US20240287138A1, “CYCLIC PEPTIDES FOR INHIBITING TNF RECEPTOR 1 ACTIVITY” (Merck Sharp & Dohme LLC, priority 2023, published 2024).
Like-named read-outs stand apart in the source and are kept apart here. Numbered stars: 1 amine (or outer) side, 2 acyl side, 3 side chain; on linkers, the order of the positions; unused ones are H or OH. Bridge positions count the residues as written; N and C are the ends. Square brackets hold non-standard residues; d marks the D form. Peptide text beside a SMILES is read from it. * marks the point of attachment. Trp(βS-Me,7-OMe) = COc1cccc2c([C@H](C)[C@H](N)C(=O)O)c[nH]c12; Trp(1-CH2COOH) = N[C@@H](Cc1cn(CC(=O)O)c2ccccc12)C(=O)O; Trp(7-CN) = N#Cc1cccc2c(C[C@H](N)C(=O)O)c[nH]c12; Trp(7-Cl) = N[C@@H](Cc1c[nH]c2c(Cl)cccc12)C(=O)O; Phe(4-CONH2) = NC(=O)c1ccc(C[C@H](N)C(=O)O)cc1; Phe(4-COOH) = N[C@@H](Cc1ccc(C(=O)O)cc1)C(=O)O; 4Pal(3S-Me) = C[C@@H](c1ccncc1)[C@H](N)C(=O)O; Trp(7-aza) = N[C@@H](Cc1c[nH]c2ncccc12)C(=O)O; dPro(4S-NH2) = N[C@@H]1CN[C@@H](C(=O)O)C1; Pip(5R-OH) = O=C(O)[C@@H]1CC[C@@H](O)CN1; αMeW = C[C@](N)(Cc1c[nH]c2ccccc12)C(=O)O; X1 = O=C([C@@H]1CC[C@H](N[*:1])C1)[*:2]; Pip(4-aza) = O=C(O)[C@@H]1CNCCN1; 4Pal = N[C@@H](Cc1ccncc1)C(=O)O; Abu(4-CN) = N#CCC[C@H](N)C(=O)O; Gly(cBu) = N[C@H](C(=O)O)C1CCC1; NMeE = CN[C@@H](CCC(=O)O)C(=O)O; dHyp = O=C(O)[C@H]1C[C@H](O)CN1; Ahp(2) = CCCCC[C@H](N)C(=O)O; αMeS = C[C@](N)(CO)C(=O)O; Carboxymethyl = O=C(O)C*; Nle = CCCC[C@H](N)C(=O)O; Sar = CNCC(=O)O

Columns and labels:
[1] = molecular target: T1, human TNFR1 extracellular domain (ECD) protein (Homo sapiens, UniProt P19438); assay: SPR binding affinity to captured human TNFR1 ECD
T1 construct: HRV 3C protease cleavage site (C); 6His (C, cleaved yes); made in house; host or cells: Sf21 insect cells (baculovirus), secreted
T1 sequence (P19438 30-211): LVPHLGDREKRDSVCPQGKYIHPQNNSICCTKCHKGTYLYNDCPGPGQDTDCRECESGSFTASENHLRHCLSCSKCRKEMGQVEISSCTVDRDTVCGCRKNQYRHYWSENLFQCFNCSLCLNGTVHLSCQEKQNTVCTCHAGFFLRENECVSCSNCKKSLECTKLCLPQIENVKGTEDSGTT
Procedure, shortened: (§1)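 SPR kinetics: peptides over captured avi-biotinylated receptor ECDs, TNFR1 for affinity, TNFR2 run in parallel for off-target binding. Running buffer HEPES pH 7.4 with 150 mM NaCl, 3 mM EDTA, 0.05% P20, 2% DMSO; surface regenerated between analytes. Affinity derived from kon/koff.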

[2] = molecular target: T2, human TNFR2 ECD protein (Homo sapiens, UniProt P20333); assay: SPR off-target binding (selectivity) to human TNFR2 ECD
T2 construct: HRV 3C protease cleavage site (C); 6His (C, cleaved yes); made in house; host or cells: Sf21 insect cells (baculovirus), secreted
T2 sequence (P20333 23-257): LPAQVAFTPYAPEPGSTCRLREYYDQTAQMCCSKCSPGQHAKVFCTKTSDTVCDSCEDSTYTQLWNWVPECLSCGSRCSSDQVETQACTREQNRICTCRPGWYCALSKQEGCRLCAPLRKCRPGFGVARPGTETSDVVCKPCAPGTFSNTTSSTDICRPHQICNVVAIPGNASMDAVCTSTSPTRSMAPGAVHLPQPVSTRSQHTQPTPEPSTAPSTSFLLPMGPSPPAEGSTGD
Procedure, shortened: as §1

[3] = molecular target: T3, TNFα-induced NF-κB signal transduction pathway (TNFR1 signaling) in THP-1 cells (Homo sapiens, UniProt P19438); assay: THP-1 Lucia NF-κB reporter cell assay, inhibition of TNFα-induced NF-κB signaling; format: cell-based; conditions: THP-1 NF-κB Lucia reporter cells, 10 ng/mL TNFα, 16-18 h, secreted luciferase; read-out: THP-1 IC50
T3 sequence (P19438 30-455): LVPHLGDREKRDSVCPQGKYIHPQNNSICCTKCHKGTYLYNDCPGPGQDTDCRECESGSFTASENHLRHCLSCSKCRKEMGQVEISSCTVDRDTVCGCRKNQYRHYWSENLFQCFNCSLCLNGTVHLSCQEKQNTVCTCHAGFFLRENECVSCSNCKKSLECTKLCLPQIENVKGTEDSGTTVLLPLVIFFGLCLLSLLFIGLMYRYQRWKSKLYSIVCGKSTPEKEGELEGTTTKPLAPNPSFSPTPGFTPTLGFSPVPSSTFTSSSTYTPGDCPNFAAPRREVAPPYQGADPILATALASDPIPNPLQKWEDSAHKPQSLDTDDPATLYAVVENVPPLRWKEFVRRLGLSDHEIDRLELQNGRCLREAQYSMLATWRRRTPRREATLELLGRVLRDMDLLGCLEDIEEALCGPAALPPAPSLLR
Procedure, shortened: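 IC50 from a 4-parameter logistic fit of secreted luciferase luminescence (QUANTI-Luc), normalised to min/max controls. Reporter THP-1 cells were exposed to peptides for 1 h at 37 °C before 10 ng/mL TNFα (final) was added overnight (16–18 h).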

[4] = biotinylated human TNFR1 ECD on streptavidin chip, from kon and koff, read-out: SPR hTNFR1 KD
[5] = biotinylated human TNFR2 ECD on streptavidin chip, read-out: SPR hTNFR2 KD

Compound	Kd [1] [nM]	Kd [2] [nM]	IC50 [3] [nM]	Kd [1, 4] [nM]	Kd [2, 5] [nM]
CCCCC[C@@H]1NC(=O)[C@@H]2CC[C@@H](C2)NC(=O)[C@H]([C@@H](C)c2c[nH]c3c(OC)cccc23)NC(=O)CN(C)C(=O)[C@H](Cc2ccc(C(N)=O)cc2)NC(=O)[C@H](Cc2ccc(C(N)=O)cc2)NC(=O)[C@](C)(CO)NC(=O)[C@H](Cc2c[nH]c3c(C#N)cccc23)NC(=O)[C@H](Cc2ccc(C(=O)O)cc2)NC(=O)[C@H](CC(N)=O)NC(=O)[C@H]2C[C@H](O)CN2C(=O)[C@H](Cc2c[nH]c3ccccc23)NC(=O)[C@H](CCC#N)NC(=O)[C@H]([C@@H](C)c2ccncc2)NC1=O [SEQ ID NO. 79] (cyclo([Ahp(2)][4Pal(3S-Me)][Abu(4-CN)]W[dHyp]N[Phe(4-COOH)][Trp(7-CN)][αMeS][Phe(4-CONH2)][Phe(4-CONH2)][Sar][Trp(βS-Me,7-OMe)][X1]))	0.05	> 1000	1.3		
CCCC[C@@H]1NC(=O)[C@@H]2CC[C@@H](C2)NC(=O)[C@H]([C@@H](C)c2c[nH]c3c(OC)cccc23)NC(=O)CN(C)C(=O)[C@H](Cc2ccc(C(=O)O)cc2)NC(=O)[C@H](Cc2ccc(C(N)=O)cc2)NC(=O)[C@](C)(CO)NC(=O)[C@H](Cc2c[nH]c3c(C#N)cccc23)NC(=O)[C@H](Cc2ccc(C(=O)O)cc2)NC(=O)[C@H](CC(N)=O)NC(=O)[C@H]2C[C@H](N)CN2C(=O)[C@H](Cc2cn(CC(=O)O)c3ccccc23)NC(=O)[C@@H]2CC[C@@H](O)CN2C(=O)[C@H](Cc2ccncc2)NC1=O [SEQ ID NO. 104] (cyclo([4Pal][Pip(5R-OH)][Trp(1-CH2COOH)][dPro(4S-NH2)]N[Phe(4-COOH)][Trp(7-CN)][αMeS][Phe(4-CONH2)][Phe(4-COOH)][Sar][Trp(βS-Me,7-OMe)][X1][Nle]))			1	0.02	> 1000
CCCC[C@@H]1NC(=O)[C@@H]2CC[C@@H](C2)NC(=O)[C@H]([C@@H](C)c2c[nH]c3c(OC)cccc23)NC(=O)CN(C)C(=O)[C@H](Cc2ccc(C(N)=O)cc2)NC(=O)[C@H](Cc2ccc(C(N)=O)cc2)NC(=O)[C@](C)(CO)NC(=O)[C@H](Cc2c[nH]c3c(Cl)cccc23)NC(=O)[C@H](Cc2ccc(C(=O)O)cc2)NC(=O)[C@H](CC(N)=O)NC(=O)[C@H]2C[C@H](O)CN2C(=O)[C@H](Cc2c[nH]c3ccccc23)NC(=O)[C@@H]2CC[C@@H](O)CN2C(=O)[C@H](Cc2ccncc2)NC1=O [SEQ ID NO. 196] (cyclo([4Pal][Pip(5R-OH)]W[dHyp]N[Phe(4-COOH)][Trp(7-Cl)][αMeS][Phe(4-CONH2)][Phe(4-CONH2)][Sar][Trp(βS-Me,7-OMe)][X1][Nle]))			0.6	0.05	> 1000
CCCC[C@@H]1NC(=O)CSC[C@@H](C(N)=O)NC(=O)[C@](C)(Cc2c[nH]c3ccccc23)NC(=O)CN(C)C(=O)[C@H](Cc2ccc(O)cc2)NC(=O)[C@H](Cc2ccc(C(=O)O)cc2)NC(=O)[C@](C)(CO)NC(=O)[C@H](Cc2c[nH]c3c(Cl)cccc23)NC(=O)[C@H](Cc2ccncc2)NC(=O)[C@H](CC(N)=O)NC(=O)[C@H](CCC(=O)O)N(C)C(=O)[C@H](Cc2c[nH]c3ncccc23)NC(=O)[C@H](C2CCC2)NC(=O)[C@H](Cc2ccncc2)NC1=O [SEQ ID NO. 56] ({CH2CO}-[Nle][4Pal][Gly(cBu)][Trp(7-aza)][NMeE]N[4Pal][Trp(7-Cl)][αMeS][Phe(4-COOH)]Y[Sar][αMeW]C-NH2; thioether N-14)	27.2	> 1000	11		
CCCC[C@@H]1NC(=O)[C@@H]2CC[C@@H](C2)NC(=O)[C@H]([C@@H](C)c2c[nH]c3c(OC)cccc23)NC(=O)CN(C)C(=O)[C@H](Cc2ccc(O)cc2)NC(=O)[C@H](Cc2ccc(OCC(=O)O)cc2)NC(=O)[C@](C)(CO)NC(=O)[C@H](Cc2c[nH]c3c(Cl)cccc23)NC(=O)[C@H](Cc2ccncc2)NC(=O)[C@H](CC(N)=O)NC(=O)[C@H](CCC(=O)O)N(C)C(=O)[C@H](Cc2c[nH]c3ccccc23)NC(=O)[C@@H]2CNCCN2C(=O)[C@H](Cc2ccncc2)NC1=O [SEQ ID NO. 80] (cyclo([4Pal][Trp(7-Cl)][αMeS]Y(Carboxymethyl)Y[Sar][Trp(βS-Me,7-OMe)][X1][Nle][4Pal][Pip(4-aza)]W[NMeE]N))	0.33	> 1000	1.2		
